Data: US4766126A, “Process for treatment of nephritis with imidazoquinazolines” (Daiichi Seiyaku Co., Ltd., priority 1986, dated 1988)
“Also recorded” adds a separate entry of the source. Structures can show the parent of a compound that is named as a salt.

Key:
[1] = system: nephritis of acute serum sickness; details: Clin. Exp. Immunol., Vol. 61, 388-396 (1985); cited from earlier work
[2] = system: GVHR-induced nephritis (proteinuria) in BDF1 mice; assay: GVHR-induced proteinuria in mouse (urinary protein by modified one step Exton method); assay type: in vivo
Description: (§1) When an animal of a first filial generation is implanted with lymphatic cells of its parent's line, a graft-versus-host reaction (hereinafter abbreviated as GVHR) takes place to thereby produce an auto-antibody and induce chronic immune-complex (IC) type nephritis.
(§2) The present invention will now be illustrated by way of experiment examples. In these examples, the drug of interest was dissolved in a 0.5 wt% aqueous solution of carboxymethyl cellulose and administered to test animals in an amount of 0.1 ml per 10 g of the body weight.
(§3) Into BDF1 mice (female; 7-week-old; Nippon Charles River) were intravenously implanted twice spleen cells (6×10^7 cells) and thymus cells (3×10^7 cells) taken from DBA/2 mice (female; 7-week-old; Nippon Charles River) of their parent's line on the 0 day and the 5th day to thereby induce GVHR. DN-9693 was orally given at a dose level of 1 mg/kg in a single dose per day for consecutive 44 days from the 6th day to the 49th day. After 2 weeks from the first implantation of cells, the protein in urine and the anti-erythrocyte antibody titre were determined at one week intervals. The protein in urine and the antibody titre were determined by the modified one step Exton method and the direct Coombs' test method, respectively, in accordance with the following procedures:
Modified One Step Exton Method
1. Test urine and an albumin standard preparation were placed in a microplate in 10 μl portions.
2. To each hole was added 200 μl of a reagent prepared by dissolving 15 g of sulfosalicylic acid, 20 g of anhydrous sodium sulfate, 5 mg of Bromophenol Blue, and 0.1 g of carboxymethyl cellulose in one liter of water. After stirring to mix, the system was allowed to stand at room temperature.
3. Ten minutes later, the absorbance at 690 nm was measured using the system comprising the reagent alone as a blank.
4. The protein in urine was calculated from a calibration curve.

[3] = system: anti-erythrocyte antibody (auto-antibody) in BDF1 mice; assay: Auto-antibody production in mouse induced by GVHR (anti-erythrocyte antibody titre, direct Coombs' test); assay type: in vivo
Description: as §1, §2, §3
Direct Coombs' Test Method
1. Blood samples (50 μl) were obtained from the orbital veniplex of the experimental animals (mice) using a heparinized hematocrit tube.
2. The erythrocytes were washed three times by centrifugation (2,500 r.p.m. for 6 minutes) with a phosphoric acid-buffered physiological saline containing 0.3 wt% bovine serum albumin (0.3% BSA-PBS).
3. The erythrocytes were suspended in 0.3% BSA-PBS to prepare a 1 wt% mouse erythrocyte suspension.
4. The erythrocyte suspension (50 μl) was added to 50 μl of rabbit anti-mouse Ig (MBL) in a two-fold serial dilution placed in a microplate. After shaking, the system was allowed to stand at 37° C. for 1 hour and then at room temperature for 2 hours. The state of agglutination was observed.
5. The maximum dilution of the rabbit anti-mouse Ig that gave a positive agglutination was expressed as 10×2^n, and the value n was taken as an antibody titre.

[4] = system: lupus nephritis (proteinuria) in NZB/WF1 mice; assay: Urinary protein in NZB/WF1 mouse (spontaneous lupus nephritis); assay type: in vivo
Description: as §2
Ten animals clearly showing proteinuria were chosen from 32-week-old NZB/WF1 mice (female, Jackson) and divided into two groups (5 animals per group) taking the protein level in urine as a guide.
DN-9693 was continuously administered orally one or two times per day at a dose of 1 mg/kg, and influences on changes of urinary protein level were examined.
Thus, the activity to lower protein in urine was recognized also in spontaneously occurring lupus nephritis.

[5] = 1 mg/kg p.o., in words, monohydrate

N=C(N)c1ccc2cc(OC(=O)c3ccc(N=C(N)N)cc3)ccc2c1 [FUT-175, dihydrochloride]
Protection of nephritis [1]: protection of nephritis

OCCN(CCO)c1nc(N2CCCCC2)c2nc(N(CCO)CCO)nc(N3CCCCC3)c2n1 [dipyridamole, 2,6-bis(diethanolamino)-4,8-dipiperidinopyrimido[5,4,-d]pyrimidine]
Protection of nephritis [1]: protection of nephritis

O=C1CN2Cc3cc(N4CCCCC4)ccc3N=C2N1 [DN-9693, 7-piperidino-1,2,3,5-tetrahydroimidazo[2,1-b]quinazolin-2-onedihydrochloride monohydrate]
Effect on urinary protein (GVHR-induced nephritis) [2, 5]: exhibited an effect to decrease protein in urine; also recorded: urinary protein decreasing effect; also recorded: significantly inhibits an increase of urinary protein
Urinary Protein Score (Mean ± S.E.), 4th Week ([2]; DN-9693 1 mg/kg p.o. once daily day 6-49, n=7, 4th week from first cell implantation, control 0.2 ± 0.1, score 0 (<=1 mg/ml) to 4 (>=30 mg/ml and ascitic positive)): 0.3 ± 0.1
Urinary Protein Score (Mean ± S.E.), 5th Week ([2]; DN-9693 1 mg/kg p.o. once daily day 6-49, n=7, 5th week from first cell implantation, control 0.8 ± 0.4, score 0 to 4): 0.1 ± 0.1
Urinary Protein Score (Mean ± S.E.), 6th Week ([2]; DN-9693 1 mg/kg p.o. once daily day 6-49, n=7, 6th week from first cell implantation, control 1.8 ± 0.7, score 0 to 4): 0.4 ± 0.4
Urinary Protein Score (Mean ± S.E.), 7th Week ([2]; DN-9693 1 mg/kg p.o. once daily day 6-49, n=7, 7th week from first cell implantation, control 2.3 ± 0.6, S.E. 0.4 printed on next line, significantly different from control (P < 0.05), score 0 to 4): 0.6
Anti-Erythrocyte Antibody Titre (Mean ± S.E.), 3rd Week ([3]; 1 mg/kg p.o. once daily day 6-49, n=7, titre n: 10 × 2^n, 3rd week from first cell implantation, control 6.3 ± 1.0): 6.6 ± 0.6
Anti-Erythrocyte Antibody Titre (Mean ± S.E.), 4th Week ([3]; 1 mg/kg p.o. once daily day 6-49, n=7, titre n: 10 × 2^n, 4th week from first cell implantation, control 5.4 ± 0.6): 5.6 ± 0.2
Anti-Erythrocyte Antibody Titre (Mean ± S.E.), 5th Week ([3]; 1 mg/kg p.o. once daily day 6-49, n=7, titre n: 10 × 2^n, 5th week from first cell implantation, control 4.9 ± 1.3): 3.6 ± 1.1
Anti-Erythrocyte Antibody Titre (Mean ± S.E.), 6th Week ([3]; 1 mg/kg p.o. once daily day 6-49, n=7, titre n: 10 × 2^n, 6th week from first cell implantation, control 2.9 ± 1.5): 3.9 ± 1.1
Anti-Erythrocyte Antibody Titre (Mean ± S.E.), 7th Week ([3]; 1 mg/kg p.o. once daily day 6-49, n=7, titre n: 10 × 2^n, 7th week from first cell implantation, control 1.9 ± 1.2): 3.1 ± 1.0
Influence on production of auto-antibody / immune inhibitory activity [3, 5]: did not influence the production of an auto-antibody; also recorded: possesses no immune inhibitory activity; also recorded: does not decrease the Coombs antibody titre
Effect on urinary protein (spontaneous lupus nephritis) ([4]; 1 mg/kg p.o. one or two times per day, in words, monohydrate): the increase of urinary protein level is inhibited; also recorded: reduction of protein in the urine
Number of survivors, 0 Week (32) ([4]; of 5 animals, 0 week, control 5): 5
Number of survivors, 1 Week (33) ([4]; of 5 animals, 1 week, control 5): 5
Number of survivors, 2 Weeks (34) ([4]; of 5 animals, 2 weeks, control 4): 5
Urinary Protein Index (Mean ± S.E.), 0 Week (32) ([4]; protein level after/before administration, 1 mg/kg p.o. one or two times per day, 0 week (32-week-old), control 1.0): 1.1
Urinary Protein Index (Mean ± S.E.), 1 Week (33) ([4]; protein level after/before administration, 1 mg/kg p.o. one or two times per day, 1 week (33-week-old), control 7.0 ± 5.9): 1.2 ± 0.2
Urinary Protein Index (Mean ± S.E.), 2 Weeks (34) ([4]; protein level after/before administration, 1 mg/kg p.o. one or two times per day, 2 weeks (34-week-old), control 4.8 ± 2.9): 1.6 ± 0.6
